These results are taken from patent US9353082B2, “Pharmaceutical compounds” (BIAL—PORTELA & CA, S.A., priority 2008, dated 2016).

Structures are written as SMILES.

The first test has as its target T1, FAAH (Rattus norvegicus, UniProt P97612).
T1 construct: Frozen brains (without cerebellum) from Wistar rats were used; from tissue; host or cells: Wistar rat brain (without cerebellum), washed membrane pellets
T1 sequence (P97612 1-579): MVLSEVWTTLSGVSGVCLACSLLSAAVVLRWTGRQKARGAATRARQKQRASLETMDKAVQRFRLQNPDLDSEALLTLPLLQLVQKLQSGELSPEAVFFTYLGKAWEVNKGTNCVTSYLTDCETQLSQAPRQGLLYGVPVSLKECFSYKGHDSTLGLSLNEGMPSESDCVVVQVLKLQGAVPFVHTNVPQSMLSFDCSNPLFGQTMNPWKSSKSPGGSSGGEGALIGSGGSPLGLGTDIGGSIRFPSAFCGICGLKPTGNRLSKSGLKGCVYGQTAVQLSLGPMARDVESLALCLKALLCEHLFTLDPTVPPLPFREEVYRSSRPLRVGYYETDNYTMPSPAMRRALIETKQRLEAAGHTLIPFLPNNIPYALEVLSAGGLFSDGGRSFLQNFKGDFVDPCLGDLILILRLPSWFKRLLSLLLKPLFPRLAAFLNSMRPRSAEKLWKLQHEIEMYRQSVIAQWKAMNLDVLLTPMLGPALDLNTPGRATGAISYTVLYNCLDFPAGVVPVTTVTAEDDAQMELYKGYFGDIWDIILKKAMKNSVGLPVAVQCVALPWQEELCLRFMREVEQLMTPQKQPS
Kind of test: In vitro FAAH activity in rat brain membranes, 3H-AEA substrate, % of control. The test is classed as biochemical, Wistar rats. Conditions: 100 nM test compound, low value = strong inhibitor. The method, then: 3. Biological Efficacy of Compounds of the Invention The in vitro test was performed according to the protocol described below. The controls for both in vitro and in vivo were the reaction mix minus the test compounds. Therefore, a low value in Table 1 below for the test compounds indicates a strong inhibitor.
The in vitro pharmaceutical FAAH activity was determined according to the following method:
Frozen brains (without cerebellum) from Wistar rats were used, and each brain was homogenized in 15 ml 1 mM MgCL2, […] HEPES pH 7.0 with Potter Elvejhem (8 strokes at 500 rpm). Homogenates were centrifuged for 20 min at 36000 g at 4° C. (Beckman, 70Ti rotor). Pellets were resuspended in 15 ml of the same buffer and centrifuged under the same conditions. Pellets were resuspended in 15 ml of the same buffer and incubated for 15 min at 37° C. after which they were centrifuged for 20 min at 36000 g at 4° C. Each pellet was then resuspended in 15 ml 3 mM MgCl2, 1 mM EDTA, 50 mM Tris pH 7.4 and protein determined with BioRad Protein Assay (BioRad) using a standard curve of BSA (50-250 μg/ml). The membrane suspensions were aliquoted and stored at −80° C.
The FAAH activity was determined using AEA (labelled with 3H in the ethanolamine part of the molecule) as substrate and measuring the 3H-ethanolamine formed. Reaction mix (total volume of 200 up contained: 2 μM AEA (2 μM AEA+5 nM 3H-AEA), 0.1% fatty acid free BSA, 5 μg protein, in 1 mM EDTA, 10 mM Tris pH 7.6 and 10 μM or 0.1 μM compounds. Stock solutions of the compounds to test (10 mM) were prepared in 100% DMSO and the DMSO concentration in the assay was 0.1%. After a 15 min preincubation period at 37° C., reaction was started by the addition of the substrate solution ([…]). Reaction was carried out for 10 min before termination by the addition of 400 μl activated charcoal suspension (8 g charcoal in 32 ml 0.5 M HCl in continuous agitation). After a 30 min incubation period at room temperature with agitation, charcoal was sedimented by centrifugation in microfuge (10 min at 13000 rpm). 200 μl of the supernatant were added to 800 μl Optiphase Supermix scintillation cocktail previously distributed in 24-well plates. Counts per minute (cpm) were determined in Microbeta TriLux scintillation counter (10 min counting or until s=2).
In each assay blanks (no protein, usually below 200 cpm) and controls (no compound) were present. The results are reported in Table 1 as % of control after blank subtraction.
As to `CN(C(=O)n1nnc2ccccc21)c1ccc(N2CCOCC2)cc1` [Compound 76, N-methyl-N-(4-morpholinophenyl)-1H-benzo[d][1,2,3]triazole-1-carboxamide], the “In Vitro FAAH activity, 100 nM” value is 97.1 % of control.

On to `CN(C(=O)n1cnc(-c2ccccc2)c1)C1CCCCC1` [Compound 103, N-cyclohexyl-N-methyl-4-phenyl-1H-imidazole-1-carboxamide], for which the “In Vitro FAAH activity, 100 nM” value is on record as 37.5 % of control.

`O=C(N1CCC2(CC1)OCCO2)n1cnc(-c2ccc(Cl)c(Cl)c2)c1` [Compound 198, (4-(3,4-dichlorophenyl)-1H-imidazol-1-yl)(1,4-dioxa-8-azaspiro[4.5]decan-8-yl)methanone]: the “In Vitro FAAH activity, 100 nM” value is 33 % of control.

For `CN(C(=O)n1cnc(-c2cccc(-c3cc(Cl)ccc3F)c2)c1)C1CCCCC1` [Compound 259, 4-(5′-chloro-2′-fluorobiphenyl-3-yl)-N-cyclohexyl-N-methyl-1H-imidazole-1-carboxamide], the “In Vitro FAAH activity, 100 nM” value is 33.7 % of control.

For the compound `CN(C(=O)n1cnc(-c2ccccc2)n1)c1ccc(F)cc1F` [Compound 74, N-(2,4-difluorophenyl)-N-methyl-3-phenyl-1H-1,2,4-triazole-1-carboxamide], the “In Vitro FAAH activity, 100 nM” value is 73.2 % of control.

As to `COc1cc(OC)cc(N(C)C(=O)n2nnc3ccccc32)c1` [Compound 77, N-(3,5-dimethoxyphenyl)-N-methyl-1H-benzo[d][1,2,3]triazole-1-carboxamide], the “In Vitro FAAH activity, 100 nM” value is 76.3 % of control.

For the compound `O=C(N1CCSC1)n1cnc(-c2ccc(Cl)cc2)n1` [Compound 214, (3-(4-chlorophenyl)-1H-1,2,4-triazol-1-yl)(thiazolidin-3-yl)methanone], the “In Vitro FAAH activity, 100 nM” value was 23.7 % of control.

As for `O=C(N1CCC(OCc2ccccc2)CC1)n1nnc2ccccc21` [Compound 128, (1H-benzo[d][1,2,3]triazol-1-yl)(4-(benzyloxy)piperidin-1-yl)methanone], the “In Vitro FAAH activity, 100 nM” value was 0 % of control.

Take `O=C(N1CCCC1)n1nnc2ccccc21` [Compound 98, (1H-benzo[d][1,2,3]triazol-1-yl)(pyrrolidin-1-yl)methanone]: the “In Vitro FAAH activity, 100 nM” value is 0.6 % of control.

As for `CN(C(=O)n1nnc2cc(-c3ccc(F)cc3)ccc21)C1CCCCC1` [Compound 96, N-cyclohexyl-5-(4-fluorophenyl)-N-methyl-1H-benzo[d][1,2,3]triazole-1-carboxamide], the “In Vitro FAAH activity, 100 nM” value is reported as 14.3 % of control.

Regarding `O=C(NC12CC3CC(CC(C3)C1)C2)n1cnc(-c2ccccc2)c1` [Compound 237], the “In Vitro FAAH activity, 100 nM” value is listed as 91.6 % of control.

Regarding `CN(CCCc1ccccc1)C(=O)n1nnc2ccccc21` [Compound 118, N-methyl-N-(3-phenylpropyl)-1H-benzo[d][1,2,3]triazole-1-carboxamide], the “In Vitro FAAH activity, 100 nM” value was 0 % of control.

For `CCC1CN(C(=O)n2cnc(-c3ccccc3)c2)C(C)(C)O1` (stereo not shown) [Compound 270, (5-ethyl-2,2-dimethyloxazolidin-3-yl)(4-phenyl-1H-imidazol-1-yl)methanone], the “In Vitro FAAH activity, 100 nM” value is 113.1 % of control.

Consider `Cl.O=C(N1CCC(N2CCCC2)CC1)n1nnc2ccccc21` [Compound 92, (1H-benzo[d][1,2,3]triazol-1-yl)(4-(pyrrolidin-1-yl)piperidin-1-yl)methanone hydrochloride], for which the “In Vitro FAAH activity, 100 nM” value was 96 % of control.

On to `CN(C)c1ccc(N(C)C(=O)n2nnc3ccccc32)cc1` [Compound 81, N-(4-(dimethylamino)phenyl)-N-methyl-1H-benzo[d][1,2,3]triazole-1-carboxamide], for which the “In Vitro FAAH activity, 100 nM” value was 49.2 % of control.

As for `CN(C(=O)n1cnc(-c2ccccc2F)c1)c1ccccc1` [Compound 30, 4-(2-fluorophenyl)-N-methyl-N-phenyl-1H-imidazole-1-carboxamide], the “In Vitro FAAH activity, 100 nM” value was 72.5 % of control.

Regarding `O=C(N1CCCc2ccccc21)n1cnc(-c2ccc(F)cc2)c1` [Compound 44, (3,4-dihydroquinolin-1(2H)-yl)(4-(4-fluorophenyl)-1H-imidazol-1-yl)methanone], the “In Vitro FAAH activity, 100 nM” value was 97.8 % of control.

For the compound `O=C(N1CCC(CCCc2ccccc2)CC1)n1cnc(-c2ccc(Cl)cc2)c1` [Compound 197, (4-(4-chlorophenyl)-1H-imidazol-1-yl)(4-(3-phenylpropyl)piperidin-1-yl)methanone], the “In Vitro FAAH activity, 100 nM” value is reported as 0.3 % of control.

Regarding `O=C(N1CCOCC1)n1cnc(-c2ccc(F)cc2F)n1` [Compound 78, (3-(2,4-difluorophenyl)-1H-1,2,4-triazol-1-yl)(morpholino)methanone], the “In Vitro FAAH activity, 100 nM” value was 81.9 % of control.

Consider `NC(=O)c1ccc(-c2cn(C(=O)N3CCN(Cc4ccccc4)CC3)cn2)cc1` [Compound 112, 4-(1-(4-benzylpiperazine-1-carbonyl)-1H-imidazol-4-yl)benzamide], for which the “In Vitro FAAH activity, 100 nM” value is listed as 7.2 % of control.

For `CC1(C)OCCN1C(=O)n1cnc(-c2ccccc2)c1Cl` [Compound 268, (5-chloro-4-phenyl-1H-imidazol-1-yl)(2,2-dimethyloxazolidin-3-yl)methanone], the “In Vitro FAAH activity, 100 nM” value is reported as 104.1 % of control.

As to `O=C(N1CCOCC1)n1cnc(-c2ccc(N3CCN(Cc4ccccc4)CC3)cc2)n1` [Compound 133, (3-(4-(4-benzylpiperazin-1-yl)phenyl)-1H-1,2,4-triazol-1-yl)(morpholino)methanone], the “In Vitro FAAH activity, 100 nM” value was 90.7 % of control.

`Cl.O=C(N1CCC(N2CCOCC2)CC1)n1nnc2ccccc21` [Compound 90, (1H-benzo[d][1,2,3]triazol-1-yl)(4-morpholinopiperidin-1-yl)methanone hydrochloride]: the “In Vitro FAAH activity, 100 nM” value is reported as 38.6 % of control.

Regarding `CN(Cc1ccc2ccccc2c1)C(=O)n1nnc2ccccc21` [Compound 131, N-methyl-N-(naphthalen-2-ylmethyl)-1H-benzo[d][1,2,3]triazole-1-carboxamide], the “In Vitro FAAH activity, 100 nM” value is 0 % of control.

Still in this test, the particulars now being: 10 uM test compound, low value = strong inhibitor.
Regarding `CN(C(=O)n1cnc(-c2ccccc2)c1)C1CCCCC1` [Compound 103, N-cyclohexyl-N-methyl-4-phenyl-1H-imidazole-1-carboxamide], the “In Vitro FAAH activity, 10 uM” value is 0 % of control.

As to `CN(C(=O)n1ccc(-c2cccnc2)n1)c1ccccc1` [Compound 24, N-methyl-N-phenyl-3-(pyridin-3-yl)-1H-pyrazole-1-carboxamide], the “In Vitro FAAH activity, 10 uM” value is listed as 22.9 % of control.

For `COc1ccc(-c2cn(C(=O)N(C)c3ccc(F)cc3)cn2)cc1` [Compound 36, N-(4-fluorophenyl)-4-(4-methoxyphenyl)-N-methyl-1H-imidazole-1-carboxamide], the “In Vitro FAAH activity, 10 uM” value is 5 % of control.

As for `CN(C(=O)n1cnc(-c2ccccc2F)c1)c1ccccc1` [Compound 30, 4-(2-fluorophenyl)-N-methyl-N-phenyl-1H-imidazole-1-carboxamide], the “In Vitro FAAH activity, 10 uM” value was 0.1 % of control.

Take `O=C(Nc1ccc(OCc2ccccc2)cc1)n1ccc(-c2ccccc2)n1` [Compound 11, N-(4-(benzyloxy)phenyl)-3-phenyl-1H-pyrazole-1-carboxamide]: the “In Vitro FAAH activity, 10 uM” value is recorded as 82.6 % of control.

Regarding `CN(C(=O)n1cccn1)c1ccccc1` [Compound 8, N-methyl-N-phenyl-1H-pyrazole-1-carboxamide], the “In Vitro FAAH activity, 10 uM” value is 13.2 % of control.

The same test, now with this note: rat brain membranes, compound at 100 nM, low value = strong inhibitor.
On to `CN(C(=O)n1cnc(-c2ccc(Cl)cc2)c1)C1CCCCC1` [Compound 277, 4-(4-chlorophenyl)-N-cyclohexyl-N-methyl-1H-imidazole-1-carboxamide], for which the “In Vitro 100 nM (FAAH activity, % of control)” value is reported as 72.1 % of control.
